Test results from ChEMBL document CHEMBL4402537, “Recent development of membrane-active molecules as antibacterial agents” (2019).
Values after ≈ are worked out from the molar mass of the structure shown. One block for each molecule: values may come before it.

Tests used:
Assay type in all cases: functional
Staphylococcus aureus [1] = test: Antibacterial activity against Staphylococcus aureus after 10 hrs by broth microdilution assay
Escherichia coli = test: Antibacterial activity against Escherichia coli after 10 hrs by broth microdilution assay
Staphylococcus aureus [2] = test: Antibacterial activity against methicillin resistant Staphylococcus aureus
Staphylococcus aureus [3] = test: Antibacterial activity against methicillin resistant Staphylococcus aureus clinical isolate
Klebsiella pneumoniae = test: Antibacterial activity against Klebsiella pneumoniae
Acinetobacter baumannii = test: Antibacterial activity against Acinetobacter baumannii
Staphylococcus aureus [4] = test: Antibacterial activity against methicillin resistant Staphylococcus aureus DM09808R after 18 to 20 hrs by CLSI based direct colony suspension method
Staphylococcus aureus [5] = test: Antibacterial activity against Staphylococcus aureus ATCC 29213 after 18 to 20 hrs by CLSI based direct colony suspension method
Enterococcus faecalis = test: Antibacterial activity against Enterococcus faecalis ATCC 29212 after 18 to 20 hrs by CLSI based direct colony suspension method
Staphylococcus aureus [6] = test: Antibacterial activity against methicillin resistant Staphylococcus aureus DB57964/04 after 18 to 20 hrs by CLSI based direct colony suspension method
Staphylococcus aureus [7] = test: Antibacterial activity against methicillin resistant Staphylococcus aureus DM21455 after 18 to 20 hrs by CLSI based direct colony suspension method
Bacillus cereus = test: Antibacterial activity against Bacillus cereus ATCC 11778 after 18 to 20 hrs by CLSI based direct colony suspension method

MIC (Staphylococcus aureus [1]): 43 µM
MIC (Escherichia coli): 35 µM
Structure (SMILES): CCCCCCCCCCCCNC(=O)C[N+](C)(C)C

MIC (Staphylococcus aureus [1]): 10 µM
MIC (Escherichia coli): 13 µM
Structure (SMILES): CCCCCCCCCCCCNC(=O)C[N+](C)(C)CCCCCC[N+](C)(C)CC(=O)NCCCCCCCCCCCC

Structure (SMILES): CCCCCCCCCCCCCC(=O)N(CCCNC(=O)[C@H](N)CCCCN)CCCNC(=O)[C@H](N)CCCCN.O=C(O)C(F)(F)F.O=C(O)C(F)(F)F.O=C(O)C(F)(F)F.O=C(O)C(F)(F)F
MIC (Staphylococcus aureus [2]): 3.1 to 6.3 µg/mL

Structure (SMILES): CCCCCCN(Cc1ccc(-c2ccc(CN(CCCCCC)C(=O)[C@@H](N)CCCCN)cc2)cc1)C(=O)[C@@H](N)CCCCN.O=C(O)C(F)(F)F.O=C(O)C(F)(F)F.O=C(O)C(F)(F)F.O=C(O)C(F)(F)F
MIC (Staphylococcus aureus [2]): 3.1 µg/mL
MIC (Staphylococcus aureus [3]): 6.2 µg/mL

Structure (SMILES): CCCCCCCC(=O)N(CCCNC(=O)[C@@H](CCCCN)NC(=O)[C@H](N)CCCCN)CCCNC(=O)[C@@H](CCCCN)NC(=O)[C@H](N)CCCCN.O=C(O)C(F)(F)F.O=C(O)C(F)(F)F.O=C(O)C(F)(F)F.O=C(O)C(F)(F)F.O=C(O)C(F)(F)F.O=C(O)C(F)(F)F
MIC (Klebsiella pneumoniae): 6.3 to 12.5 µg/mL
MIC (Staphylococcus aureus [2]): 6.3 to 12.5 µg/mL
MIC (Acinetobacter baumannii): 6.3 to 12.5 µg/mL

Structure (SMILES): COc1c(O)cc2oc3cc(O)c(CC=C(C)C)c(O)c3c(=O)c2c1CC=C(C)C [MANGOSTIN]
MIC (Staphylococcus aureus [4]): 0.78 to 1.56 µg/mL (≈ 1.9 to 3.8 µM)
MIC (Staphylococcus aureus [5]): 0.78 to 1.56 µg/mL (≈ 1.9 to 3.8 µM)
MIC (Enterococcus faecalis): 0.78 to 1.56 µg/mL (≈ 1.9 to 3.8 µM)
MIC (Staphylococcus aureus [6]): 0.78 to 1.56 µg/mL (≈ 1.9 to 3.8 µM)
MIC (Staphylococcus aureus [7]): 0.78 to 1.56 µg/mL (≈ 1.9 to 3.8 µM)
MIC (Bacillus cereus): 0.78 to 1.56 µg/mL (≈ 1.9 to 3.8 µM)
